Structures can show the parent of a compound that is named as a salt.
Tests used:
[1] = system: ^14C-acetate incorporation into the steroids which can be precipitated with digitonin; test: Inhibition of 14C-acetate incorporation into the steroids which can be precipitated with digitonin; format: cell-based; settings: for inhibition at 0.01 µM / inhibition at 0.001 µM: read-out: percentage by which the compound inhibits the 14C-acetate incorporation
Experimental: I. Measuring the Inhibition of ^14C-acetate Incorporation into the Steroids which can be Precipitated with Digitonin
The inhibitory effect was investigated using the method described in J. Lipid. Res. 37, 148-157 [1996] at test concentrations of 10^−8 and 10^−9 mol/l.
The IC50 values of compounds H, I, K and M were determined.

[2] = molecular target: T1, 2,3-epoxysqualene-lanosterol-cyclase (Rattus norvegicus, UniProt P48450); test: In-vivo activity in the rat after oral administration: 2,3-epoxysqualene level in the liver
T1 construct: The quantity of 2,3-epoxysqualene formed therefore serves as a direct measurement of the potency on the animal as a whole; from tissue; host or cells: living rat; 2,3-epoxysqualene measured in the liver
T1 sequence (P48450 1-733): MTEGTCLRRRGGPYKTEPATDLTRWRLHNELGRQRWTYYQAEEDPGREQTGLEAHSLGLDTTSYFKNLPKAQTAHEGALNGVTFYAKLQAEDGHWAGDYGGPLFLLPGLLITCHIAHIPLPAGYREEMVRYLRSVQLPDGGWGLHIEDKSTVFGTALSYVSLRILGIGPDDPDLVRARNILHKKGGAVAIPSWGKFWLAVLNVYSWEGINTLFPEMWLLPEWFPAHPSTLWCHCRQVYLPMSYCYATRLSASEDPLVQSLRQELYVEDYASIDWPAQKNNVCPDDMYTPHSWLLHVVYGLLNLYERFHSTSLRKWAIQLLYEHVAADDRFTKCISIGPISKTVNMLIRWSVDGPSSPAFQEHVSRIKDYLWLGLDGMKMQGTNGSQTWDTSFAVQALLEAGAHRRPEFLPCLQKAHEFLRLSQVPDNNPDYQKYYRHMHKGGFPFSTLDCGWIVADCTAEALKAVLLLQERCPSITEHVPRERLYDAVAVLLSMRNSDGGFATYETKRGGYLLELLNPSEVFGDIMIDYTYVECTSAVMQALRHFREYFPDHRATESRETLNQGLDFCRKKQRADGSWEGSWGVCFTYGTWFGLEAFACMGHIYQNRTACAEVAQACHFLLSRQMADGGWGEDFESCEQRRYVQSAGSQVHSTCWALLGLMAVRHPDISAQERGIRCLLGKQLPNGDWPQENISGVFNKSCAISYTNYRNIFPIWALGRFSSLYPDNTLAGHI
Experimental: II. Measuring the In-vivo Activity in the Rat after Oral Administration
Inhibiting the enzyme 2,3-epoxysqualene-lanosterol-cyclase causes an increase in the 2,3-epoxisqualene levels in the liver and plasma. The quantity of 2,3-epoxysqualene formed therefore serves as a direct measurement of the potency on the animal as a whole. The amounts were determined using the method described in J. Lipid. Res. 38, 564-575, [1997] after t=3 or 8 hours after administration of the substance in concentrations of c=0.01, 0.03, 0.1, 0.3 and 1.0 mg/kg. Table 3 which follows gives the results obtained for the abovementioned substances A, B, C, D, E, G, H, I and K by way of example.
In the control animals there were no measurable 2,3-epoxisqualene levels under these conditions.

[3] = system: normolipaemic golden hamster; test: Lipid reduction in the normolipaemic golden hamster; format: in vivo; settings: compared with control group
Experimental: III. Lipid Reduction in the Normolipaemic Golden Hamster This was determined using the method described in J. Lipid. Res. 38, 564-575, (1997). At the end of the experiment the total cholesterol, β-lipoprotein-cholesterol and HDL-cholesterol were determined and compared with the values of a control group which were fed without any test substance. The lipid-lowering activity of the abovementioned compound H was tested.

SMILES	2,3-epoxysqualene concentration in the liver (rat) ([2]; c=0.1 mg/kg, t=3 h)	2,3-epoxysqualene concentration in the liver (rat) ([2]; c=1.0 mg/kg, t=3 h)	2,3-epoxysqualene concentration in the liver (rat) ([2]; c=1.0 mg/kg, t=8 h)	inhibition at 0.01 µM ([1]; test concentration 10^−8 mol/l)	inhibition at 0.001 µM ([1]; test concentration 10^−9 mol/l)	2,3-epoxysqualene concentration in the liver (rat) ([2]; c=0.1 mg/kg, t=8 h)	IC50 [1]	also measured
CN(C)Cc1ccc(SC2CCN(C(=O)Oc3ccc(Cl)cc3)CC2)cc1.Cl [(D), N-(4-chlorophenoxy)carbonyl-4-[4-(dimethylaminomethyl)phenylthio]piperidine-hydrochloride]	1.4 µg/g	–	–	86%	55%	1.8 µg/g	–	2,3-epoxysqualene concentration in the liver (rat) ([2]; c=0.01 mg/kg, t=3 h): 1.3 µg/g; 2,3-epoxysqualene concentration in the liver (rat) ([2]; c=0.01 mg/kg, t=8 h): 1.0 µg/g
Cc1ccc(CC(=O)O[C@H]2CC[C@H](c3ccc(CN(C)C)cc3)CC2)cc1 [(W), trans-O-(p-tolylacetyl)-4-(4-dimethylaminomethylphenyl)cyclohexanol, reference compound]	–	–	–	72%	21%	–	9.6 nM	–
Cc1ccc(OC(=S)N2CCC(Cc3ccc(CN(C)C)cc3)CC2)cc1 [(L), 4-[4-(dimethylaminomethyl)benzyl]-N-(4-methylphenoxy)thiocarbonylpiperidine-hydrochloride]	–	–	–	88%	64%	–	–	–
CN(C)Cc1ccc(SC2CCN(C(=O)Oc3ccccc3)CC2)cc1.Cl	–	–	–	–	–	–	–	melting point: 161 °C
Cc1ccc(OC(=O)N2CCC(Cc3ccc(CN(C)C)cc3)CC2)cc1.Cl [(K), 4-[4-(dimethylaminomethyl)benzyl]-N-(4-methylphenoxy)carbonylpiperidine-hydrochloride]	0.4 µg/g	24.0 µg/g	5.5 µg/g	82%	49%	0.4 µg/g	1.4 nM	HDL-cholesterol ([3]; dose 54.2 mg/kg/day): 2.3%; Total cholesterol ([3]; dose 54.2 mg/kg/day): −6.8%; β-Lipoprotein-cholesterol ([3]; dose 54.2 mg/kg/day): −21.2%
CN(C)Cc1ccc(CC2CCN(C(=O)Oc3ccc(Cl)cc3)CC2)cc1.Cl [(H), N-(4-chlorophenoxy)carbonyl-4-[4-(dimethylaminomethyl)benzyl]piperidine-hydrochloride]	1.0 µg/g	56.3 µg/g	20.7 µg/g	80%	45%	0.8 µg/g	0.8 nM	HDL-cholesterol ([3]; dose 6.5 mg/kg/day): −3.4%; Total cholesterol ([3]; dose 6.5 mg/kg/day): −8.3%; β-Lipoprotein-cholesterol ([3]; dose 6.5 mg/kg/day): −13.0%; HDL-cholesterol ([3]; dose 19.9 mg/kg/day): −8.2%; Total cholesterol ([3]; dose 19.9 mg/kg/day): −11.0%; β-Lipoprotein-cholesterol ([3]; dose 19.9 mg/kg/day): −13.2%; HDL-cholesterol ([3]; dose 62.3 mg/kg/day): −28.5%; Total cholesterol ([3]; dose 62.3 mg/kg/day): −32.1%; β-Lipoprotein-cholesterol ([3]; dose 62.3 mg/kg/day): −33.7%
CN(C)Cc1ccc(CC2CCN(C(=O)Oc3ccc(F)cc3)CC2)cc1.Cl [(M), 4-[4-(dimethylaminomethyl)benzyl]-N-(4-fluorphenoxy)carbonylpiperidine-hydrochloride]	–	–	–	–	–	–	1.5 nM	percentage by which the compound inhibits the 14C-acetate incorporation ([1]; test concentration 10^−8 mol/l): −84%; percentage by which the compound inhibits the 14C-acetate incorporation ([1]; test concentration 10^−9 mol/l): −59%; HDL-cholesterol ([3]; dose 57.5 mg/kg/day): −20.4%; Total cholesterol ([3]; dose 57.5 mg/kg/day): −26.8%; β-Lipoprotein-cholesterol ([3]; dose 57.5 mg/kg/day): −31.6%
CN(C)Cc1ccc([C@H]2CC[C@H](N(C)C(=O)c3ccc(Cl)cc3)CC2)cc1 [(V), reference compound]	–	–	–	–	–	–	3.8 nM	percentage by which the compound inhibits the 14C-acetate incorporation ([1]; test concentration 10^−8 mol/l): −59%; percentage by which the compound inhibits the 14C-acetate incorporation ([1]; test concentration 10^−9 mol/l): −23%
CN(C)Cc1ccc(C=C2CCN(C(=S)SCc3ccccc3)CC2)cc1 [(F), N-(benzylthio)thiocarbonyl-4-[4-(dimethylaminomethyl)benzyliden]piperidine-hydrochloride]	–	–	–	84%	45%	–	–	–

Continued, in another order:

2,3-epoxysqualene concentration in the liver (rat) ([2]; c=0.1 mg/kg, t=3 h)	2,3-epoxysqualene concentration in the liver (rat) ([2]; c=1.0 mg/kg, t=3 h)	2,3-epoxysqualene concentration in the liver (rat) ([2]; c=1.0 mg/kg, t=8 h)	SMILES	inhibition at 0.01 µM ([1]; test concentration 10^−8 mol/l)	inhibition at 0.001 µM ([1]; test concentration 10^−9 mol/l)	2,3-epoxysqualene concentration in the liver (rat) ([2]; c=0.1 mg/kg, t=8 h)	IC50 [1]	also measured
0.5 µg/g	3.8 µg/g	2.0 µg/g	CN(C)Cc1ccc(SC2CCN(C(=O)OCc3ccccc3)CC2)cc1.Cl [(C), N-benzyloxycarbonyl-4-[4-(dimethylaminomethyl)phenylthio]piperidine-hydrochloride]	78%	57%	1.3 µg/g	–	2,3-epoxysqualene concentration in the liver (rat) ([2]; c=0.01 mg/kg, t=3 h): 0.6 µg/g; 2,3-epoxysqualene concentration in the liver (rat) ([2]; c=0.01 mg/kg, t=8 h): 3.0 µg/g; 2,3-epoxysqualene concentration in the liver (rat) ([2]; c=0.3 mg/kg, t=3 h): 0.5 µg/g; 2,3-epoxysqualene concentration in the liver (rat) ([2]; c=0.3 mg/kg, t=8 h): 1.8 µg/g
10.3 µg/g	87.4 µg/g	134.2 µg/g	CN(C)Cc1ccc(CC2CCN(C(=S)Oc3ccc(Cl)cc3)CC2)cc1.Cl [(G), N-(4-chlorophenoxy)thiocarbonyl-4-[4-(dimethylaminomethyl)benzyl]piperidine-hydrochloride]	83%	56%	11.5 µg/g	–	–
–	39.2 µg/g	42.0 µg/g	CN(C)Cc1ccc(C(=O)C2CCN(C(=S)SCc3ccccc3)CC2)cc1.Cl [(B), N-(benzylthio)thiocarbonyl-4-[4-(dimethylaminomethyl)benzoyl]piperidine-hydrochloride]	85%	47%	–	–	2,3-epoxysqualene concentration in the liver (rat) ([2]; c=0.3 mg/kg, t=3 h): 4.5 µg/g; 2,3-epoxysqualene concentration in the liver (rat) ([2]; c=0.3 mg/kg, t=8 h): 5.8 µg/g
5.6 µg/g	–	–	CN(C)Cc1ccc(CC2CCN(C(=S)SCc3ccccc3)CC2)cc1.Cl [(E), N-(benzylthio)thiocarbonyl-4-[4-(dimethylaminomethyl)benzyl]piperidine-hydrochloride]	87%	47%	4.4 µg/g	–	2,3-epoxysqualene concentration in the liver (rat) ([2]; c=0.01 mg/kg, t=3 h): 0.9 µg/g; 2,3-epoxysqualene concentration in the liver (rat) ([2]; c=0.01 mg/kg, t=8 h): 1.0 µg/g
–	9.3 µg/g	9.8 µg/g	CN(C)Cc1ccc(SC2CCN(C(=S)SCc3ccccc3)CC2)cc1.Cl [(A), N-(benzylthio)thiocarbonyl-4-[4-(dimethylaminomethyl)phenylthio]piperidine-hydrochloride]	85%	53%	–	–	2,3-epoxysqualene concentration in the liver (rat) ([2]; c=0.3 mg/kg, t=3 h): 2.0 µg/g; 2,3-epoxysqualene concentration in the liver (rat) ([2]; c=0.3 mg/kg, t=8 h): 1.2 µg/g
1.0 µg/g	26.1 µg/g	10.0 µg/g	CN(C)Cc1ccc(CC2CCN(C(=O)OCc3ccccc3)CC2)cc1.Cl [(I), N-benzyloxycarbonyl-4-[4-(dimethylaminomethyl)benzyl]piperidine-hydrochloride]	85%	47%	–	1.2 nM	–

Source: patent publication US6339096B1, “Urethanes derived from azacycloalkanes, the thio and dithio analogues thereof and their use as cholesterol biosynthesis inhibitors” (Boehringer Ingelheim Pharma KG, priority 1998, dated 2002)
